# In ChEMBL document CHEMBL4017541, “Membrane-Active Hydantoin Derivatives as Antibiotic Agents” (J Med Chem, 2017):
# Active and inactive are the calls of the source. The calls are words filed in the database; no cut-off is given here.
# How the values were obtained:
# [1] = system: Escherichia coli; experiment: Antimicrobial activity against Escherichia coli ATCC 25922 after 16 hrs; assay type: functional; settings: ATCC 25922, 16 h
# [2] = system: Pseudomonas aeruginosa; experiment: Antimicrobial activity against Pseudomonas aeruginosa ATCC 27853 after 16 hrs; assay type: functional; settings: ATCC 27853, 16 h
# [3] = system: Klebsiella pneumoniae; experiment: Antimicrobial activity against Klebsiella pneumoniae ATCC 13383 after 16 hrs; assay type: functional; settings: ATCC 13383, 16 h
# [4] = system: Staphylococcus aureus; experiment: Antimicrobial activity against methicillin resistant Staphylococcus aureus ATCC 33591 after 16 hrs; assay type: functional; settings: ATCC 33591, 16 h
# [5] = system: Staphylococcus epidermidis; experiment: Antimicrobial activity against methicillin resistant Staphylococcus epidermidis RP62A after 16 hrs; assay type: functional
# [6] = system: Enterococcus faecalis; experiment: Antimicrobial activity against vancomycin resistant Enterococcus faecalis ATCC 700802 after 16 hrs; assay type: functional; settings: ATCC 700802, 16 h
# [7] = system: Staphylococcus aureus; experiment: Antibacterial activity against methicillin resistant Staphylococcus aureus ATCC 33591 infected in Wistar rat assessed as reduction in lung inflammation at 10 mg/kg, iv treated 24 hrs post infection measured after 3 days by hematoxylin/ eosin staining based microscopic analysis; assay type: functional, organism-based
# [8] = system: Staphylococcus aureus; experiment: Antibacterial activity against methicillin resistance Staphylococcus aureus ATCC 33591 infected in Wistar rat assessed as reduction in bacterial load in bronchoalveolar lavage of lungs at 10 mg/kg, iv treated 24 hrs post infection measured after 3 days relative to control; assay type: functional; design: scale not given: the % may be the effect or the level left
# [9] = system: Staphylococcus aureus; experiment: Antibacterial activity against methicillin resistance Staphylococcus aureus ATCC 33591 infected in Wistar rat assessed as reduction in bacterial load in bronchoalveolar lavage of lungs at 10 mg/kg, iv treated 24 hrs post infection measured after 5 days relative to control; assay type: functional; design: scale not given: the % may be the effect or the level left
# [10] = system: Staphylococcus aureus; experiment: Antibacterial activity against methicillin resistant Staphylococcus aureus ATCC 33591 infected in Wistar rat assessed as reduction in lung inflammation at 10 mg/kg, iv treated 24 hrs post infection measured after 5 days by hematoxylin/ eosin staining based microscopic analysis; assay type: functional, organism-based
# [11] = Selectivity index, ratio of HC50 for mouse RBC to MIC for methicillin resistance Staphylococcus aureus ATCC 33591
# [12] = Retention time of compound by HPLC analysis
# [13] = system: Staphylococcus aureus; experiment: Antibacterial activity against methicillin resistance Staphylococcus aureus ATCC 33591 after 14 serial passage at 0.5 times MIC after 16 hrs; assay type: functional
# [14] = system: Staphylococcus aureus; experiment: Bactericidal activity against methicillin resistance Staphylococcus aureus ATCC 33591 at 2 ug/ml after 60 mins by time kill analysis; assay type: functional
# [15] = system: Escherichia coli; experiment: Induction of membrane disruption in Escherichia coli ATCC 25922 at 5 ug/ml after 2 hrs by propidium iodide/4', 6'-diamidino-2-phenylindole dihydrochloride dye based fluorescence microscopy; assay type: functional
# [16] = system: HCT-116; experiment: Cytotoxicity against human HCT116 cells; assay type: cell-based
# [17] = system: Staphylococcus aureus; experiment: Bactericidal activity against methicillin resistance Staphylococcus aureus ATCC 33591 at 25 ug/ml after 10 mins by time kill analysis; assay type: functional
# [18] = system: Escherichia coli; experiment: Bactericidal activity against Escherichia coli ATCC 25922 at 4 ug/ml after 60 mins by time kill analysis; assay type: functional
# [19] = system: Escherichia coli; experiment: Bactericidal activity against Escherichia coli ATCC 25922 at 25 to 50 ug/ml after 30 mins by time kill analysis; assay type: functional
# [20] = system: Staphylococcus aureus; experiment: Induction of membrane disruption in methicillin resistance Staphylococcus aureus ATCC 33591 at 5 ug/ml after 2 hrs by propidium iodide/4', 6'-diamidino-2-phenylindole dihydrochloride dye based fluorescence microscopy; assay type: functional
Structure (SMILES),MIC [1] [µg/mL],MIC [2] [µg/mL],MIC [3] [µg/mL],MIC [4] [µg/mL],MIC [5] [µg/mL],MIC [6] [µg/mL],Retention time [12] [min],further results
CCCCCCCCCCCCCCCC(=O)N[C@@H](CCCCN)CN1CC(=O)N(C2CCCCC2)C1=O,> 50,> 50,> 50,3.12,25,25,,
CCCCCCCCCCCCCCCC(=O)N[C@@H](CCCCN)CN1CC(=O)N(c2ccc(OC)cc2)C1=O,> 50,> 50,> 50,3.12,6.25,6.25,,
CN[C@H](CC(C)C)C(=O)N[C@H]1C(=O)N[C@@H](CC(N)=O)C(=O)N[C@H]2C(=O)N[C@H]3C(=O)N[C@H](C(=O)N[C@H](C(=O)O)c4cc(O)cc(O)c4-c4cc3ccc4O)[C@H](O)c3ccc(c(Cl)c3)Oc3cc2cc(c3O[C@@H]2O[C@H](CO)[C@@H](O)[C@H](O)[C@H]2O[C@H]2C[C@](C)(N)[C@H](O)[C@H](C)O2)Oc2ccc(cc2Cl)[C@H]1O [VANCOMYCIN],,,,,,,,Activity [7]: Active; Activity [8]: 30%; Activity [9]: 45%; Activity [10]: Active
CCCCCCCCCCCC(=O)N[C@@H](CCCCN)CN1CC(=O)N(C23CC4CC(CC(C4)C2)C3)C1=O,12.5,> 50,> 50,6.25,6.25,6.25,,
CCCCCCCCCCCCCC(=O)N[C@@H](CCCCN)CN1CC(=O)N(CCCC)C1=O,6.25,> 50,12.5,6.25,6.25,6.25,,
CCCCCCCCCC(=O)N[C@@H](CCCCN)CN1CC(=O)N(c2cccc(Cl)c2)C1=O,6.25,6.25,6.25,6.25,6.25,12.5,,Selectivity Index [11]: 16
CCCCCCCCCCCCCCCC(=O)N[C@@H](CCCCN)CN1CC(=O)N(CC)C1=O,3.12,> 50,12.5,3.12,3.12,3.12,< 26,
CCCCCCCCCCCC(=O)N[C@@H](CCCCN)CN1CC(=O)N(CC)C1=O,12.5,> 50,> 50,> 50,> 50,> 50,< 26,
CCCCCCCCCCCCCCCC(=O)N[C@@H](CCCCN)CN1CC(=O)N(c2cccc(Cl)c2)C1=O,> 50,> 50,> 50,12.5,12.5,12.5,,
CCCCCCCCCC(=O)N[C@@H](CCCCN)CN1CC(=O)N(c2ccc(OC)cc2)C1=O,> 50,> 50,> 50,> 50,> 50,> 50,< 26,
CCCCCCCCCC(=O)N[C@@H](CCCCN)CN1CC(=O)N(C2CCCCC2)C1=O,12.5,> 50,25,25,> 50,> 50,< 26,
CCCCCCCCCCCC(=O)N[C@@H](CCCCN)CN1CC(=O)N(CCCC)C1=O,6.25,25,12.5,12.5,25,25,< 26,Selectivity Index [11]: 6.4
CCCCCCCCCCCCCC(=O)N[C@@H](CCCCN)CN1CC(=O)N(CC)C1=O,3.12,12.5,6.25,6.25,6.25,6.25,,Selectivity Index [11]: 14.4
CCCCCCCCCCCC(=O)N[C@@H](CCCCN)CN1CC(=O)N(C2CCCCC2)C1=O,6.25,12.5,6.25,6.25,6.25,12.5,,Selectivity Index [11]: 16
CCCCCCCCCCCC(=O)N[C@@H](CCCCN)CN1CC(=O)N(c2cccc(Cl)c2)C1=O,1,1,0.78,0.5,0.5,0.5,28.4,Activity [13]: Active; Activity [7]: Active; Activity [14]: Active; Activity [8]: 70%; Activity [15]: Active; Activity [9]: 96%; IC50 [16]: 100 µg/mL; Activity [17]: Active; Activity [18]: Active; Activity [19]: Active; Selectivity Index [11]: 190; Activity [10]: Active; Activity [20]: Active
CCCCCCCCCCCCCC(=O)N[C@@H](CCCCN)CN1CC(=O)N(C23CC4CC(CC(C4)C2)C3)C1=O,> 50,> 50,> 50,,3.15,6.25,,
CCCCCCCCCC(=O)N[C@@H](CCCCN)CN1CC(=O)N(C23CC4CC(CC(C4)C2)C3)C1=O,6.25,12.5,6.25,6.25,6.25,12.5,,Selectivity Index [11]: 20
CCCCCCCCCCCCCC(=O)N[C@@H](CCCCN)CN1CC(=O)N(c2ccc(OC)cc2)C1=O,6.25,> 50,25,6.25,6.25,6.25,,
CCCCCCCCCCCC(=O)N[C@@H](CCCCN)CN1CC(=O)N(c2ccc(OC)cc2)C1=O,12.5,12.5,12.5,25,25,25,< 26,Selectivity Index [11]: 8
CCCCCCCCCCCCCCCC(=O)N[C@@H](CCCCN)CN1CC(=O)N(CCCC)C1=O,> 50,> 50,> 50,6.25,6.25,6.25,,
CCCCCCCCCC(=O)N[C@@H](CCCCN)CN1CC(=O)N(CCCC)C1=O,> 50,> 50,> 50,> 50,> 50,> 50,< 26,
O=C1CN(/N=C/c2ccc([N+](=O)[O-])o2)C(=O)N1 [NITROFURANTOIN],6.25,> 50,25,12.5,6.25,12.5,,
CCCCCCCCCCCCCC(=O)N[C@@H](CCCCN)CN1CC(=O)N(c2cccc(Cl)c2)C1=O,> 50,> 50,> 50,12.5,12.5,12.5,,
CCCCCCCCCC(=O)N[C@@H](CCCCN)CN1CC(=O)N(CC)C1=O,> 50,> 50,> 50,> 50,> 50,> 50,< 26,
CCCCCCCCCCCCCC(=O)N[C@@H](CCCCN)CN1CC(=O)N(C2CCCCC2)C1=O,12.5,> 50,6.25,3.12,6.25,6.25,,
CCCCCCCCCCCC(=O)N[C@@H](Cc1ccccc1)CN1CC(=O)N(c2cccc(Cl)c2)C1=O,> 50,> 50,> 50,> 50,> 50,> 50,< 26,
CCCCCCCCCCCCCCCC(=O)N[C@@H](CCCCN)CN1CC(=O)N(C23CC4CC(CC(C4)C2)C3)C1=O,> 50,> 50,> 50,> 50,> 50,> 50,,
